From the supplement of paper PMC6045584
± gives the standard deviation of the averaged measurements.

What was measured:
Experiment in all cases: surviving fraction relative to DMSO-only wells; higher = less growth inhibition
Settings in all cases: exposure time: 5 days
MDV3100 = compound: CNC(=O)c1ccc(N2C(=S)N(c3ccc(C#N)c(C(F)(F)F)c3)C(=O)C2(C)C)cc1F [MDV3100]
How it was run: (§1)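 Continuous five-day exposure to inhibitors at 0.5, 1, 5, 10, 50, 100, 500 and 1000 nM started 24 hours after log-phase tumour cell lines were seeded at 250–500 cells per well in 384-well plates. Luminescence was read after 10 minutes at room temperature. Viability is given as surviving fraction, meaning CellTiter-Glo luminescence normalised to the median of DMSO-only wells.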

TIOGUANINE = compound: Nc1nc2[nH]cnc2c(=S)[nH]1 [TIOGUANINE]
How it was run: as §1

CANERTINIB = compound: C=CC(=O)Nc1cc2c(Nc3ccc(F)c(Cl)c3)ncnc2cc1OCCCN1CCOCC1 [CANERTINIB]
How it was run: as §1

AFATINIB = compound: CN(C)C/C=C/C(=O)Nc1cc2c(Nc3ccc(F)c(Cl)c3)ncnc2cc1O[C@H]1CCOC1 [AFATINIB]
How it was run: as §1

SAPACITABINE = compound: CCCCCCCCCCCCCCCC(=O)Nc1ccn([C@@H]2O[C@H](CO)[C@@H](O)[C@@H]2C#N)c(=O)n1 [SAPACITABINE]
How it was run: as §1

In the case of C33A CERVIX, the surviving fraction (MDV3100; 50 nM) is reported as 0.983 ± 0.098, the surviving fraction (MDV3100; 100 nM) is reported as 1.02 ± 0.05 and the surviving fraction (MDV3100; 500 nM) is reported as 0.834 ± 0.059. The surviving fraction (MDV3100; 1000 nM) was 0.868 ± 0.044, the surviving fraction (TIOGUANINE; 0.5 nM) was 0.807 ± 0.079 and the surviving fraction (TIOGUANINE; 1 nM) was 0.711 ± 0.052. For the same test system, the surviving fraction (TIOGUANINE; 5 nM) was 0.9503 ± 0.0032, the surviving fraction (TIOGUANINE; 10 nM) was 0.91 ± 0.048 and the surviving fraction (TIOGUANINE; 50 nM) was 1.03 ± 0.092. For the same test system, the surviving fraction (TIOGUANINE; 100 nM) was 1.02 ± 0.023, the surviving fraction (TIOGUANINE; 500 nM) was 0.707 ± 0.043 and the surviving fraction (TIOGUANINE; 1000 nM) was 0.648 ± 0.061. For the same test system, the surviving fraction (CANERTINIB; 0.5 nM) was 1.08 ± 0.039, the surviving fraction (CANERTINIB; 1 nM) was 1 ± 0.057 and the surviving fraction (CANERTINIB; 5 nM) was 1.37 ± 0.12. The surviving fraction (CANERTINIB; 10 nM) was 1.04 ± 0.11, the surviving fraction (CANERTINIB; 50 nM) was 1.1 ± 0.015 and the surviving fraction (CANERTINIB; 100 nM) was 0.84 ± 0.025. The surviving fraction (CANERTINIB; 500 nM) was 0.578 ± 0.044, the surviving fraction (CANERTINIB; 1000 nM) was 0.349 ± 0.006 and the surviving fraction (AFATINIB; 0.5 nM) was 0.907 ± 0.059. For the same test system, the surviving fraction (AFATINIB; 1 nM) was 1.02 ± 0.12, the surviving fraction (AFATINIB; 5 nM) was 0.909 ± 0.046 and the surviving fraction (AFATINIB; 10 nM) was 0.939 ± 0.085. It also gave a surviving fraction (AFATINIB; 50 nM) of 0.507 ± 0.0065, a surviving fraction (AFATINIB; 100 nM) of 0.417 ± 0.0072 and a surviving fraction (AFATINIB; 500 nM) of 0.337 ± 0.038. It also gave a surviving fraction (AFATINIB; 1000 nM) of 0.23 ± 0.0027, a surviving fraction (SAPACITABINE; 0.5 nM) of 1.09 ± 0.078 and a surviving fraction (SAPACITABINE; 1 nM) of 0.987 ± 0.071. It also gave a surviving fraction (SAPACITABINE; 5 nM) of 1.12 ± 0.026, a surviving fraction (SAPACITABINE; 10 nM) of 0.981 ± 0.059 and a surviving fraction (SAPACITABINE; 50 nM) of 0.711 ± 0.08. The surviving fraction (SAPACITABINE; 100 nM) was 0.457 ± 0.029, the surviving fraction (SAPACITABINE; 500 nM) was 0.214 ± 0.024 and the surviving fraction (SAPACITABINE; 1000 nM) was 0.142 ± 0.021.
